Test results published in ChEMBL document CHEMBL3414438, “5'-C-Ethyl-tetrazolyl-N(6)-substituted adenosine and 2-chloro-adenosine derivatives as highly potent dual acting A1 adenosine receptor agonists and A3 adenosine receptor antagonists” (J Med Chem, 2015).
The source made the active and inactive calls. No cut-off for these calls is given here.

Experiments:
Adenosine receptor A1 [1] = target: T1, Adenosine receptor A1 (Homo sapiens, UniProt P30542); experiment: Displacement of [3H]-CCPA from human recombinant adenosine A1 receptor transfected in CHO cells; format: cell-based
T1 sequence (P30542 whole entry): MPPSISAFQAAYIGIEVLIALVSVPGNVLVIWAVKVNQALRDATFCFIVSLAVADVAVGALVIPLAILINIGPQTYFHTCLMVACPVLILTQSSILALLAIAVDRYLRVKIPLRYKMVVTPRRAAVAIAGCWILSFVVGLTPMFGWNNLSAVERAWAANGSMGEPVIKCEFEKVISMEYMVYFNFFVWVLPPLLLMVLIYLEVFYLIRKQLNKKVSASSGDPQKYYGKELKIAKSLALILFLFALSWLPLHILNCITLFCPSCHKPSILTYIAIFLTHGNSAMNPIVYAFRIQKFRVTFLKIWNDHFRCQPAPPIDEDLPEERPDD

Adenosine receptor A2a [2] = target: T2, Adenosine receptor A2a (Homo sapiens, UniProt P29274); experiment: Displacement of [3H]-NECA from human recombinant adenosine A2A receptor transfected in CHO cells; format: cell-based
Adenosine receptor A3 [3] = target: T3, Adenosine receptor A3 (Homo sapiens, UniProt P0DMS8); experiment: Displacement of [3H]-HEMADO from human recombinant adenosine A3 receptor transfected in CHO cells; format: cell-based
T3 sequence (P0DMS8 whole entry): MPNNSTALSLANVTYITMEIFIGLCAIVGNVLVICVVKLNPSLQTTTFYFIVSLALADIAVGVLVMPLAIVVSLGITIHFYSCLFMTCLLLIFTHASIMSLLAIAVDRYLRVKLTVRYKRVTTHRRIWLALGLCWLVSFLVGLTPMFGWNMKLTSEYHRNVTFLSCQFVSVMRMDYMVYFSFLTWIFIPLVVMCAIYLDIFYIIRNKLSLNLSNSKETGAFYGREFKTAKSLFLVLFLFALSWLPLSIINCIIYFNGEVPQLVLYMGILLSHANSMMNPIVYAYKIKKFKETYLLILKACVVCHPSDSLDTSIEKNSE

[4] = target: T4, Adenosine receptor A1 (Homo sapiens) (UniProt P30542); experiment: (§1) Agonist activity at human recombinant adenosine A1 receptor transfected in CHO cells assessed as inhibition of forskolin-induced adenylyl cyclase activity; format: functional, cell-based
T4 sequence (whole entry): T1 sequence (P30542 whole entry)

Adenosine receptor A1 [5] = target: T1, Adenosine receptor A1; experiment: as §1; format: functional, cell-based
Adenosine receptor A2a [6] = target: T2, Adenosine receptor A2a; experiment: Agonist activity at human recombinant adenosine A2A receptor transfected in CHO cells assessed as induction of adenylyl cyclase activity; format: functional, cell-based
[7] = target: T5, Adenosine receptor A2b (Homo sapiens) (UniProt P29275); experiment: (§2) Agonist activity at human recombinant adenosine A2B receptor transfected in CHO cells assessed as induction of adenylyl cyclase activity; format: functional, cell-based
T5 sequence (whole entry): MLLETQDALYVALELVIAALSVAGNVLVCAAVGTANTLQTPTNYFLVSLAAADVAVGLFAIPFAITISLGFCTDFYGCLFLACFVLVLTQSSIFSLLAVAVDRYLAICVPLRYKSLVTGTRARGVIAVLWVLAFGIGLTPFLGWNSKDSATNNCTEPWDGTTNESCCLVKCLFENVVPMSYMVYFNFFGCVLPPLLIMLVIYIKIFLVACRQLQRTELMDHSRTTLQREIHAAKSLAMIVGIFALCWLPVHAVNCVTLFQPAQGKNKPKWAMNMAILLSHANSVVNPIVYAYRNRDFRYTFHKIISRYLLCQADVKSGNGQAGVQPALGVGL

Adenosine receptor A2b = target: T6, Adenosine receptor A2b (Homo sapiens, UniProt P29275); experiment: as §2; format: functional, cell-based
T6 sequence (P29275 whole entry): T5 sequence (whole entry)

Adenosine receptor A3 [8] = target: T3, Adenosine receptor A3; experiment: Antagonist activity at human recombinant adenosine A3 receptor transfected in CHO cells assessed as reversal of NECA-induced inhibition of forskolin-induced adenylyl cyclase activity; format: functional, cell-based
Homo sapiens [9] = species: Homo sapiens; experiment: Selectivity ratio of Ki for human recombinant adenosine A2A receptor to Ki for human recombinant adenosine A1 receptor
Homo sapiens [10] = species: Homo sapiens; experiment: Selectivity ratio of Ki for human recombinant adenosine A2A receptor to Ki for human recombinant adenosine A3 receptor
[11] = target: T5, Adenosine receptor A2b (Homo sapiens); experiment: Partial agonist activity at human recombinant adenosine A2B receptor transfected in CHO cells assessed as induction of adenylyl cyclase activity relative to NECA; format: functional, cell-based

T2 sequence (P29274 whole entry): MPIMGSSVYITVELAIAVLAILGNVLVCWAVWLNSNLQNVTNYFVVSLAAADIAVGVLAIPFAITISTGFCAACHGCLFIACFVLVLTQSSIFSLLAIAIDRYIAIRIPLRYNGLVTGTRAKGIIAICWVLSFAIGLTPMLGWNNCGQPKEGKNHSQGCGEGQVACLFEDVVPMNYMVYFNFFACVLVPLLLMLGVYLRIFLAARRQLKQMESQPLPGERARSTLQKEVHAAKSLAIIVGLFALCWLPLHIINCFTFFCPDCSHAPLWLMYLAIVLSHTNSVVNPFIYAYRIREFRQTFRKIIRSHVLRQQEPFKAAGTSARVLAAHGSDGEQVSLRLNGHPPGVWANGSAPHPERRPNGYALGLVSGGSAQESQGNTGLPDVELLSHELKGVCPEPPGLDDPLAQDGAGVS

Ki (Adenosine receptor A1 [1]) | Ki (Adenosine receptor A2a [2]) | Ki (Adenosine receptor A3 [3]) | Efficacy [4] | EC50 (Adenosine receptor A1 [5]) | EC50 (Adenosine receptor A2a [6]) | Efficacy (Adenosine receptor A2a [6]) | Efficacy [7] | EC50 (Adenosine receptor A2b) | EC50 (Adenosine receptor A3 [8]) | Ratio Ki (Homo sapiens [9]) | Ratio Ki (Homo sapiens [10]) | Activity [11] | Efficacy [11] | inhibition [4] | SMILES
0.682 nM | 93 nM | 7.97 nM | > 90% | 8.61 nM | 9.75 nM | > 90% | > 90% | 675 nM | 51.5 nM | – | – | – | – | – | CCn1nnc([C@H]2O[C@@H](n3cnc4c(NC5CC5)ncnc43)[C@H](O)[C@@H]2O)n1
0.432 nM | 77.5 nM | 2.61 nM | > 90% | 10.2 nM | 8.4 nM | > 90% | > 90% | 530 nM | 33.9 nM | – | – | – | – | – | CCn1nnc([C@H]2O[C@@H](n3cnc4c(Nc5ccc(Cl)cc5F)ncnc43)[C@H](O)[C@@H]2O)n1
1.06 nM | 870 nM | 9.62 nM | > 90% | 7.42 nM | 33.2 nM | > 90% | > 90% | 3150 nM | 104 nM | – | – | – | – | – | CCn1nnc([C@H]2O[C@@H](n3cnc4c(NC5CCCO5)nc(Cl)nc43)[C@H](O)[C@@H]2O)n1 (stereo partly specified)
3.56 nM | 778 nM | 0.478 nM | > 90% | 97.2 nM | 1710 nM | > 90% | > 90% | 1480 nM | 6.38 nM | – | – | – | – | – | CCn1nnc([C@H]2O[C@@H](n3cnc4c(NC)ncnc43)[C@H](O)[C@@H]2O)n1
0.311 nM | 62.2 nM | 3.9 nM | > 90% | 3.62 nM | 5.31 nM | > 90% | > 90% | 1150 nM | 39.5 nM | – | – | – | – | – | CCn1nnc([C@H]2O[C@@H](n3cnc4c(NC5CC5)nc(Cl)nc43)[C@H](O)[C@@H]2O)n1
1.67 nM | 223 nM | 4.71 nM | > 90% | 64.8 nM | 28.8 nM | > 90% | > 90% | – | 37 nM | – | – | – | – | – | CCn1nnc([C@H]2O[C@@H](n3cnc4c(Nc5ccc(Cl)cc5F)nc(Cl)nc43)[C@H](O)[C@@H]2O)n1
8.59 nM | 3350 nM | 0.429 nM | > 90% | 250 nM | 238 nM | > 90% | – | 3510 nM | 7.69 nM | 390 | 7800 | 75% | – | – | CCn1nnc([C@H]2O[C@@H](n3cnc4c(NC)nc(Cl)nc43)[C@H](O)[C@@H]2O)n1
0.728 nM | 164 nM | 16.1 nM | > 90% | 10.2 nM | 12.8 nM | > 90% | > 90% | > 30000 nM | 721 nM | – | – | – | – | – | CCn1nnc([C@H]2O[C@@H](n3cnc4c(N[C@H]5C[C@@H]6CC[C@@H]5C6)nc(Cl)nc43)[C@H](O)[C@@H]2O)n1 (racemic)
1.23 nM | 554 nM | 15.4 nM | > 90% | 8.74 nM | 25.1 nM | > 90% | > 90% | 1340 nM | 61.9 nM | – | – | – | – | – | CCn1nnc([C@H]2O[C@@H](n3cnc4c(NC5CCCO5)ncnc43)[C@H](O)[C@@H]2O)n1 (stereo partly specified)
2.39 nM | 108 nM | 0.588 nM | > 90% | 64.9 nM | 9.04 nM | – | – | 834 nM | 13.3 nM | – | – | – | 76% | – | CCn1nnc([C@H]2O[C@@H](n3cnc4c(NCc5ccccc5I)nc(Cl)nc43)[C@H](O)[C@@H]2O)n1
– | – | – | – | – | – | – | – | – | – | – | – | – | – | Active | OC[C@H]1O[C@@H](n2cnc3c(NC4CCCC4)nc(Cl)nc32)[C@H](O)[C@@H]1O
0.919 nM | 8.12 nM | 3.86 nM | > 90% | 26.3 nM | 2.36 nM | > 90% | > 90% | 347 nM | 93.6 nM | – | – | – | – | – | CCn1nnc([C@H]2O[C@@H](n3cnc4c(N)ncnc43)[C@H](O)[C@@H]2O)n1
0.453 nM | 64.5 nM | 8.85 nM | > 90% | 4.66 nM | 7.71 nM | > 90% | > 90% | 1010 nM | 83.9 nM | – | – | – | – | – | CCn1nnc([C@H]2O[C@@H](n3cnc4c(N[C@H]5C[C@@H]6CC[C@@H]5C6)ncnc43)[C@H](O)[C@@H]2O)n1 (racemic)

SMILES | Ki (Adenosine receptor A1 [1]) | Ki (Adenosine receptor A2a [2]) | Ki (Adenosine receptor A3 [3]) | Efficacy [4] | EC50 (Adenosine receptor A1 [5]) | EC50 (Adenosine receptor A2a [6]) | Efficacy (Adenosine receptor A2a [6]) | Efficacy [7] | EC50 (Adenosine receptor A2b) | EC50 (Adenosine receptor A3 [8]) | Ratio Ki (Homo sapiens [9]) | Ratio Ki (Homo sapiens [10]) | Activity [11] | Efficacy [11] | inhibition [4]
CCn1nnc([C@H]2O[C@@H](n3cnc4c(N)nc(Cl)nc43)[C@H](O)[C@@H]2O)n1 | 0.966 nM | 20.7 nM | 1.8 nM | > 90% | 19.8 nM | 3.84 nM | > 90% | > 90% | 542 nM | 31.7 nM | – | – | – | – | –
